# Assay results: patent US20040127447A1, “Augmentation of K+ channel expression using adenoviral vectors” (priority 2002, published 2004)
# Like-named read-outs stand apart in the source and are kept apart here. Ends that are not written are not given here.
# What was measured:
# PASMC K+ current (IK) = assay: Whole-cell patch clamp of PASMCs; format: cell-based; conditions: normoxic-saline rat PASMCs
# Excerpt: Fresh PASMC's were isolated from fourth division PA's by enzymatic dispersion and studied using conventional whole-cell patch-clamp technique at room temperature, as previously described in Archer S L, et al. (1998) J. Clin. Invest. 101:2319-30, and Michelakis E D, et al. (2001) Am. J. Physiol. Lung Cell Mol. Physiol. 280:L1138-47. All cells were voltage-clamped at a holding potential of −70 mV. Currents were evoked in stepwise fashion from −70 mV to +70 mV with test pulses of 200 ms. Whole-cell currents were divided by the capacitance of the cell, yielding current density. The pipette solution (intracellular) contained (mmol/L): KCl 134, KH2PO4 1.2, MgCl2 1.0, HEPES 5, pH 7.30, Na2ATP 5 and EGTA 5.
# DASMC EM = assay: DASMC membrane potential EM (current clamp, DiBAC4(3)); format: cell-based, human
# Protocol: (§1) Current and voltage clamp technique, SMC isolation and pipette solutions were performed as previously described in Michelakis E D, et al. (2002) Circ Res. 90:1307-15. The response to O2, ETC inhibitors and the membrane permeable H2O2 analog, t-butyl hydrogen peroxide, were compared between DASMCs enzymatically dispersed from fresh DAs versus those maintained in tissue culture for 72 hours (either under normoxic or hypoxic conditions).
# DASMC EM was measured both using patch clamp technique in current clamp mode and noninvasively with DiBAC4(3) (20 μM, bis-barbituric acid oxonol), a potentiometric dye that increases green fluorescence upon depolarization. DiBAC4 loaded cells or intact DA rings were stimulated with multi-photon excitation at 740 nm and emission was measured in the green range, 505-530 nm. DASMCs were studied after culture in normoxic or hypoxic environment for 4-5 days. The acute change in EM that occurred in response to 4-AP (10 mM), KCL (80 mM) or a switch in PO2 from 40 to 120 mmHg was measured.
# DASMC K+ current (IK) = assay: Whole-cell patch clamp of human DASMCs; format: cell-based; conditions: for IK at potentials close to the resting EM (-30 mV) / whole cell K+ current (IK): fresh human DASMC
# Protocol: as §1
# Cells were voltage clamped at a holding potential of −70 mV and currents were evoked by 10 mV steps to +50 mV using test pulses of 200 ms duration. Data were recorded and analyzed using pCLAMP 6.02 software (Axon Instruments, Foster City, Calif.). Current density was calculated (pA/pF) and plotted against voltage.
# [1] = system: human ductus arteriosus (DA) rings; assay: Human DA ring tension; conditions: for constriction of fresh human DA rings: hypoxia, 4-AP 1-10 mM, IBTx 200 nM
# Protocol: DAs excised from 26 neonates with hypoplastic left heart syndrome during the Norwood procedure (age 9±2 days, 12 female, arterial PO2˜40 mmHg) were usedDAs were transported in iced saline, maintained in hypoxia and used within 1 hour. Ring tension was recorded as previously described in Michelakis E, et al. (2000) Lancet 356:134-7.
# Optimal passive ring tension was determined to be 1 g, as defined by the maximal constriction to 80 mM KCl. Tension was recorded using a force transducer connected to a MacLab A-D convertor (AD Instruments, Toronto, Canada). Tension was recorded from rings bubbled with 95% N2 and 5% CO2 in Krebs' solution, to mimic in utero conditions (PO2 40 mmHg, pH 7.4, pCO2 40-50 mmHg). Normoxia was created by bubbling with 20%O2 and 5% CO2 (balance N2) resulting in PO2 150 mmHg, pH 7.4, and PCO2 40 mmHg. Optimal resting tension was previously found to be 1000 mg, as described in Michelakis E, et al. (2000) Lancet 356:134-7. To exclude the contribution of several endothelial-derived vasoactive substances, the Krebs' solution also contained meclofenamate 17 μM to inhibit PGHS and L-N^G-nitroarginine-methylester (L-NAME) 10^−5 M to inhibit NOS.
# human DA rings = assay: H2O2 production in DA rings (AmplexRed, lucigenin chemiluminescence)
# Protocol: DA rings were loaded with lucigenin 5 μM and placed in a 2 ml heated cuvette at 37° C. Counts were recorded using a Packard 1900CA Liquid Scintillation Analyzer.
# H2O2, was measured using a specific, fluorometric AmplexRed® assay, as previously described in Michelakis E D, et al. (2002 ) Circ Res. 90:1307-15. An independent, specific measure of the candidate redox mediator, H2O2, was made using the one-step, fluorometric Amplex Red (Molecular Probes, Eugene, Oreg.) assay. The assay detects H2O2 using 10-acetyl-3,7-dihydroxyphenoxazine (Amplex Red reagent) a stable probe that, in the presence of horseradish peroxidase (HRP), reacts with H2O2 with a 1:1 stoichiometry to produce the highly fluorescent substance, resorufin. The assay was calibrated (FIG. 15) and found to be linear over the range of 0.25 to 5.0 μM. Freshly harvested DA rings were placed in a normoxic or a hypoxic solution containing AmplexRed and, after 20 minutes, fluorescence was recorded (excitation 530 nm, emission 590 nm), see FIG. 15.
# DASMC mitochondria = assay: Mitochondrial membrane potential in DASMCs (JC-1, TMRM); format: cell-based, human
# Protocol: Mitochondrial membrane potential (Δψm) was measured using two independent and well-validated probes JC-1 and TMRM (tetramethyl rhodamine methyl ester), as previously described in Michelakis E D, et al. (2002) Circ Res. 90:1307-15.
# First-passage cultured DASMC were loaded with either JC-1 (1 μM) or TMRM (20 nM) for 30 minutes (37° C.) at 37 C. Confocal images were obtained within 30 minutes using a Zeiss Axiovert 100M inverted microscope equipped with an Apochromat 40×1.2 water-corrected objective. Settings (amplifier gain, pin hole size and filter set) were kept constant between experiments.
# […]. JC-1 fluoresces in the red spectra in hyperpolarized mitochondria (high Δψm) and in the green spectra in depolarized mitochondria (low Δψm). KCl (40 mM) was used to clamp the plasmalemmal membrane potential in some experiments. […] TMRM binds the inner and outer aspects of the inner mitochondrial membrane and accumulates in the mitochondria at greater quantities than predicted by the Nernst equation. TMRM fluorescence red in proportion to ψm. A 488 nm Argon laser was used for excitation and the resultant red/green fluorescence was quantified in channels 1 and 2 using LP 560 nm and BP 505-530 nm filters, respectively. 8-bit images were collected with a laser loiter time of 4.48 μs/pixel. Pinholes yielded optical slices of 1 μm. Results are expressed as the ratio of red/green channel fluorescence.
molecule,measurement,setting,value
"Nc1ccncc1 [4-AP, 4-aminopyridine]",IK in N-S PASMCs,PASMC K+ current (IK),reversible inhibition
same,acute depolarization of ionically remodeled DASMCs,"DASMC EM; chronically normoxic, returned acutely to hypoxia, 4-AP 10 mM",loose their ability to depolarize
same,IK at potentials close to the resting EM (-30 mV),DASMC K+ current (IK),significant decreases
same,whole cell K+ current (IK),DASMC K+ current (IK),significantly inhibit
same,IK of DASMC from chronically normoxic DAs,DASMC K+ current (IK); returned to hypoxic conditions,unresponsive
same,constriction of fresh human DA rings,[1],significantly constricts
C=C(C)[C@H]1Cc2c(ccc3c2O[C@@H]2COc4cc(OC)c(OC)cc4[C@@H]2C3=O)O1 [rotenone],IK acutely suppressed by O2,DASMC K+ current (IK),precisely restoring the current
same,IK of DASMC from chronically normoxic DAs,DASMC K+ current (IK),unresponsive
same,H2O2 production,human DA rings,decreases
same,ψm in DASMCs,DASMC mitochondria,depolarizes
same,phenylephrine constriction,[1],unaltered
same,relaxation of chronically normoxic DA rings,[1],no longer causes relaxation
same,relaxation of the O2-preconstricted DA,[1],relax
"CC(C)(C)OO [t-butyl-H2O2, t-butyl hydrogen peroxide]",EM of fresh hypoxic DASMCs,DASMC EM; current clamp,depolarizes
same,depolarizing response in chronically normoxic DASMCs,DASMC EM; current clamp,lost
same,IK in freshly dispersed DASMCs,DASMC K+ current (IK); voltage clamp,inhibits
antimycin,phenylephrine constriction,[1]; DA rings,unaltered
same,relaxation of the O2-preconstricted DA,[1]; normoxic DA rings,relax
"iberiotoxin (QFTDVDCSVSKECWSVCKDLFGVDRGKCMGKKCRCYQ; ends and bridges not checked; cysteine pairing not given here; UniProt P24663 1-37, looked up) [IBTx]",IK at potentials close to the resting EM (-30 mV),DASMC K+ current (IK),minimal inhibition
same,whole cell K+ current (IK),DASMC K+ current (IK),significantly inhibit
same,constriction of fresh human DA rings,[1],does not
